In data set [1] the test system is Mycobacterium tuberculosis. In words: Antitubercular activity against multidrug-resistant Mycobacterium tuberculosis by two fold serial dilution method. In kind it is functional.
Data set [2] is described as follows: Safety index, ratio of IC50 for african green monkey Vero cells to MIC for multidrug-resistant Mycobacterium tuberculosis. Type of data set: toxicity, cell-based.

Structures are written as SMILES. Values after ≈ are worked out from the molar mass of the structure shown.

The term MIC denotes the smallest concentration in the dilution series that meets the test's criterion for growth inhibition.

Compound `COc1cc2c(cc1OC)C1=NN(C(=O)Nc3ccc(Cl)cc3)C(c3ccncc3)C1C2` (stereo not given) returned an MIC in data set [1] of 10 µM (≈ 4.49 µg/mL). `COc1cc2c(cc1OC)C1=NN(C(N)=O)C(c3ccncc3)C1C2` (stereo not given): the MIC in data set [1] was more than 11.8 µM. The compound `COc1ccc(C2C3Cc4cc(OC)c(OC)cc4C3=NN2C(=O)Nc2ccc([N+](=O)[O-])cc2)cc1OC` (stereo not given) came in with an MIC in data set [1] of more than 12.1 µM. `COc1cc2c(cc1OC)C1=NN(C(=O)Nc3ccc([N+](=O)[O-])cc3)C(c3ccncc3)C1C2` (stereo not given): the MIC in data set [1] is more than 13.6 µM. In data set [1], `COc1cc2c(cc1OC)C1=NN(C(=O)Nc3ccc(Cl)cc3)C(c3ccccc3)C1C2` (stereo not given) came in with an MIC of 10.5 µM (≈ 4.69 µg/mL). For `COc1cc2c(cc1OC)C1=NN(C(N)=O)C(c3ccccc3Cl)C1C2` (stereo not given), the MIC in data set [1] is more than 10.8 µM. Still for that read-out and setting: under `NNC(=O)c1ccncc1` [ISONIAZID] stands 45.6 µM (≈ 6.25 µg/mL). `COc1cc2c(cc1OC)C1=NN(C(=O)Nc3ccc([N+](=O)[O-])cc3)C(c3ccc(F)cc3)C1C2` (stereo not given) displayed an MIC in data set [1] of 6.32 µM (≈ 3.01 µg/mL). In the case of `COc1cc2c(cc1OC)C1=NN(C(=O)Nc3ccc(Cl)cc3)C(c3ccc(F)cc3)C1C2` (stereo not given), inhibition of growth in data set [1] (MIC) required 3.32 µM (≈ 1.55 µg/mL). For the same compound, in data set [2], the selectivity ratio was 40.3. `COc1cc2c(cc1OC)C1=NN(C(=O)Nc3ccc([N+](=O)[O-])cc3)C(c3ccccc3)C1C2` (stereo not given) yielded a minimum inhibitory concentration (MIC) in data set [1] of 13.6 µM (≈ 6.24 µg/mL). For the compound `COc1cc2c(cc1OC)C1=NN(C(N)=O)C(c3ccc(F)cc3)C1C2` (stereo not given), it took 6.62 µM (≈ 2.35 µg/mL) to inhibit growth in data set [1] (MIC). Still for that read-out and setting: the figure for `COc1ccc(C2C3Cc4cc(OC)c(OC)cc4C3=NN2C(=O)Nc2ccc(Cl)cc2)cc1` (stereo not given) is more than 10.5 µM; for `COc1cc2c(cc1OC)C1=NN(C(N)=O)C(c3ccccc3)C1C2` (stereo not given) it is more than 11.8 µM; for `COc1cc2c(cc1OC)C1=NN(C(=O)Nc3ccc(Cl)cc3)C(c3ccccc3Cl)C1C2` (stereo not given) it is more than 13.9 µM. Same read-out and setting: under `COc1ccc(C2C3Cc4cc(OC)c(OC)cc4C3=NN2C(=O)Nc2ccc(Cl)cc2)cc1OC` (stereo not given) stands more than 9.8 µM; under `COc1ccc(C2C3Cc4cc(OC)c(OC)cc4C3=NN2C(N)=O)cc1` (stereo not given), more than 10.9 µM. `COc1ccc(C2C3Cc4cc(OC)c(OC)cc4C3=NN2C(N)=O)cc1OC` (stereo not given): the MIC in data set [1] is more than 10.1 µM.

`COc1ccc(C2C3Cc4cc(OC)c(OC)cc4C3=NN2C(=O)Nc2ccc([N+](=O)[O-])cc2)cc1` (stereo not given) showed an MIC in data set [1] of more than 12.8 µM.

Compound `COc1cc2c(cc1OC)C1=NN(C(=O)Nc3ccc([N+](=O)[O-])cc3)C(c3ccccc3Cl)C1C2` (stereo not given) came in with an MIC in data set [1] of more than 12.7 µM.

These data come from ChEMBL document CHEMBL1909540, “Synthesis and antimycobacterial evaluation of 3a,4-dihydro-3H-indeno [1,2-c] pyrazole-2-carboxamide analogues” (Eur J Med Chem, 2011).
